Reference: patent publication US8410112B2, “Compounds useful as inhibitors of ATR kinase” (Vertex Pharmaceuticals Incorporated, priority 2008, dated 2013)

Target: T1, full-length ATR (Homo sapiens, UniProt Q13535)
T1 construct: in the presence of 5 nM full-length ATR
Test: ATR Inhibition Assay (radioactive-phosphate incorporation)
Format: biochemical
Conditions: Ki(app); 5 nM full-length ATR, 10 μM ATP, 800 μM target peptide, 25° C.
How it was run: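 Buffer was 50 mM Tris/HCl pH 7.5, 10 mM MgCl2, 1 mM DTT, with 5 nM enzyme, 10 μM [γ-33P]ATP and 800 μM target peptide at 25 °C. Compound was pre-incubated 10 min before ATP start, and the reaction was stopped after 24 h. Phosphocellulose filter capture; Ki(app) came from non-linear regression of background-corrected initial rates.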

T1 sequence (Q13535 whole entry): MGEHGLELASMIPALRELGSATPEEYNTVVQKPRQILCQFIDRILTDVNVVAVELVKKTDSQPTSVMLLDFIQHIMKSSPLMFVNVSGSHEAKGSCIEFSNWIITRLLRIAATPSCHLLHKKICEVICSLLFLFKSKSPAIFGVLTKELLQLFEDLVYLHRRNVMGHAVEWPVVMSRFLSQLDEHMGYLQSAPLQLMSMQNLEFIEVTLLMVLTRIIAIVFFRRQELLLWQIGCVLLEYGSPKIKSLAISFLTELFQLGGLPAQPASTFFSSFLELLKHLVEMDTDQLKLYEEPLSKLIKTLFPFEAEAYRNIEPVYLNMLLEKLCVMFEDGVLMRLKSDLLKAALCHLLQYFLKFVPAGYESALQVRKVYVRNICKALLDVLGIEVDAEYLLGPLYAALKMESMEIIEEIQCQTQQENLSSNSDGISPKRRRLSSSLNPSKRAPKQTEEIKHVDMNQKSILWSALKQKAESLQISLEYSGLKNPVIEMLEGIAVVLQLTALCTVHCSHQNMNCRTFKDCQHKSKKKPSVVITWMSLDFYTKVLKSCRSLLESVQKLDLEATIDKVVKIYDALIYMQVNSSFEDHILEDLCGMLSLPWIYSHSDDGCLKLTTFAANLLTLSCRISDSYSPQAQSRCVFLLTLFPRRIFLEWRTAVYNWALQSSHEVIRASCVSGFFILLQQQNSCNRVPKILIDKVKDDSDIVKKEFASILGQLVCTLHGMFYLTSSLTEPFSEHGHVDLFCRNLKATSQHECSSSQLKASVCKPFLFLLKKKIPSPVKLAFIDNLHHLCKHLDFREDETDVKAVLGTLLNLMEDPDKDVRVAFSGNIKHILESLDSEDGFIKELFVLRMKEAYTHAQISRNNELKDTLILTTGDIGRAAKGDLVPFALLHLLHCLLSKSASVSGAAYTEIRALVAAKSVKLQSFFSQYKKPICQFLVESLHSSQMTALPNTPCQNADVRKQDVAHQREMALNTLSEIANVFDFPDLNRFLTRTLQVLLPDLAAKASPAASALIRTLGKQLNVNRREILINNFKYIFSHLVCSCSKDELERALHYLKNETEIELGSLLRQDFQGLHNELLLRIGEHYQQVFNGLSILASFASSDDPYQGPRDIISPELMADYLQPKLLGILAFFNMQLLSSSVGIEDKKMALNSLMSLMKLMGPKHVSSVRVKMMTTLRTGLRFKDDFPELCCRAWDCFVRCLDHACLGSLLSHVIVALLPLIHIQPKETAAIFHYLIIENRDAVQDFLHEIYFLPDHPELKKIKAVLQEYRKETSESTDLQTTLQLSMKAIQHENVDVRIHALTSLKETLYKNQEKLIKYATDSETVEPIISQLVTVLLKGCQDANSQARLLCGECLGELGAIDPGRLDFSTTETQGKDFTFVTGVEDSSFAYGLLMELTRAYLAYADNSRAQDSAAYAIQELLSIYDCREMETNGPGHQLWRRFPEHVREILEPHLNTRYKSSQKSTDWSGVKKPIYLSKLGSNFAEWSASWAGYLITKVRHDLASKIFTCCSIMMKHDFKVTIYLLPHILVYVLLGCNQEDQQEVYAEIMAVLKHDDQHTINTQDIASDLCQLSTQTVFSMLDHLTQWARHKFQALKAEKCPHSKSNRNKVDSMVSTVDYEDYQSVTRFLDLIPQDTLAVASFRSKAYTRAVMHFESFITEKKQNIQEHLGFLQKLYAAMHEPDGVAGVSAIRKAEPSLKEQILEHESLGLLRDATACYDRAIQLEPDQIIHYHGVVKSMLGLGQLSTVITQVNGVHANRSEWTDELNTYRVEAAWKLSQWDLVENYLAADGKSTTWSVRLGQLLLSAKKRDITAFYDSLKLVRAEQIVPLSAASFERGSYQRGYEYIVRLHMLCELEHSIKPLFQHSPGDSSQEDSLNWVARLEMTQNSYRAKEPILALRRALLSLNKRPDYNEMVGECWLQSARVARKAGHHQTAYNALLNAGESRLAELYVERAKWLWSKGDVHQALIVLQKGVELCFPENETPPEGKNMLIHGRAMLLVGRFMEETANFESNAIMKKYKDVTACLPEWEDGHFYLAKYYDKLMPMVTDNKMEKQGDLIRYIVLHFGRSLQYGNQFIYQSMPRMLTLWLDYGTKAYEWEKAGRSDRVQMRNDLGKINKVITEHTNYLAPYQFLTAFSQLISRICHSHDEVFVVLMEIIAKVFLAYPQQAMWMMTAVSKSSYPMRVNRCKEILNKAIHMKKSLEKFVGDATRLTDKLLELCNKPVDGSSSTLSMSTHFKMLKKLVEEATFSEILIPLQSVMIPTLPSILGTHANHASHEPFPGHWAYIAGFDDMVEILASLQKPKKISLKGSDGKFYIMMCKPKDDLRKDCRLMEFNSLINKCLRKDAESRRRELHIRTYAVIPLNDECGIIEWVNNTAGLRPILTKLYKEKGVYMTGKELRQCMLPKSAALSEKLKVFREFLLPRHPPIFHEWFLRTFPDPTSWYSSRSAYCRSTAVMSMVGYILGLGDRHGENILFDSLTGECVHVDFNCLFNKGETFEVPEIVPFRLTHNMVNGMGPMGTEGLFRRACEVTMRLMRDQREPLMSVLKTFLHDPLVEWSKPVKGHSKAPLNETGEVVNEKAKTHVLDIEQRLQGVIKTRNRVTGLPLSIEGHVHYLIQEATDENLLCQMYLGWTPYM

| SMILES | Ki [µM] |
| --- | --- |
| Nc1ncc(N2CCN(S(=O)(=O)c3cccs3)CC2)nc1-c1nnc(-c2ccccc2)o1 [Compound I-96, 3-(5-phenyl-1,3,4-oxadiazol-2-yl)-5-(4-(thiophen-2-ylsulfonyl)piperazin-1-yl)pyrazin-2-amine] | 0.1 to 1 |
| CC(C)S(=O)(=O)N1CCN(c2cnc(N)c(-c3nc4ccccc4[nH]3)n2)CC1 [Compound I-97, 3-(1H-benzo[d]imidazol-2-yl)-5-(4-(isopropylsulfonyl)piperazin-1-yl)pyrazin-2-amine] | 0.1 to 1 |
| Nc1ncc(N2CCN(S(=O)(=O)Cc3ccccc3)CC2)nc1-c1nnc(-c2ccccc2)o1 [Compound I-99, 5-(4-(benzylsulfonyl)piperazin-1-yl)-3-(5-phenyl-1,3,4-oxadiazol-2-yl)pyrazin-2-amine] | 0.1 to 1 |
| Nc1ncc(C2=CCN(S(=O)(=O)Cc3ccccc3)CC2)nc1-c1nnc(-c2ccccc2)o1 [Compound I-100, 5-(1-(benzylsulfonyl)-1,2,3,6-tetrahydropyridin-4-yl)-3-(5-phenyl-1,3,4-oxadiazol-2-yl)pyrazin-2-amine] | < 0.1 |
| Nc1ncc(C2=CCN(C(=O)c3ccccc3)CC2)nc1-c1nnc(-c2ccccc2)o1 [Compound I-103, (4-(5-amino-6-(5-phenyl-1,3,4-oxadiazol-2-yl)pyrazin-2-yl)-5,6-dihydropyridin-1(2H)-yl)(phenyl)methanone] | < 0.1 |
| Nc1ncc(N2CCN(S(=O)(=O)c3cccs3)CC2)nc1-c1nc2ccccc2[nH]1 [Compound I-104, 3-(1H-benzo[d]imidazol-2-yl)-5-(4-(thiophen-2-ylsulfonyl)piperazin-1-yl)pyrazin-2-amine] | 0.1 to 1 |
| Nc1ncc(N2CCN(S(=O)(=O)Cc3ccccc3)CC2)nc1-c1nc2ccccc2[nH]1 [Compound I-106, 3-(1H-benzo[d]imidazol-2-yl)-5-(4-(benzylsulfonyl)piperazin-1-yl)pyrazin-2-amine] | 0.1 to 1 |
| Nc1ncc(N2CC[C@H](NC(=O)c3ccccc3)C2)nc1-c1nc2ccccc2[nH]1 [Compound I-108, (S)-N-(1-(5-amino-6-(1H-benzo[d]imidazol-2-yl)pyrazin-2-yl)pyrrolidin-3-yl)benzamide] | 0.1 to 1 |
| CC(C)(C)C(=O)N[C@H]1CCN(c2cnc(N)c(-c3nc4ccccc4[nH]3)n2)C1 [Compound I-111, (S)-N-(1-(5-amino-6-(1H-benzo[d]imidazol-2-yl)pyrazin-2-yl)pyrrolidin-3-yl)-2,2-dimethylpropanamide] | 0.1 to 1 |
| Nc1ncc(N2CCN(C(=O)C3CCCCC3)CC2)nc1-c1nc2ccccc2[nH]1 [Compound I-112, (4-(5-amino-6-(1H-benzo[d]imidazol-2-yl)pyrazin-2-yl)piperazin-1-yl)(cyclohexyl)methanone] | 0.1 to 1 |
| CCOC(=O)N1CCN(c2cnc(N)c(C(=O)Nc3ccccn3)n2)CC1 [Compound I-113, ethyl 4-(5-amino-6-(pyridin-2-ylcarbamoyl)pyrazin-2-yl)piperazine-1-carboxylate] | 1 to 10 |
| Nc1ncc(N2CCN(S(=O)(=O)c3cccs3)CC2)nc1C(=O)Nc1ccccn1 [Compound I-116, 3-amino-N-(pyridin-2-yl)-6-(4-(thiophen-2-ylsulfonyl)piperazin-1-yl)pyrazine-2-carboxamide] | 0.1 to 1 |
| Nc1ncc(N2CCN(S(=O)(=O)c3ccsc3)CC2)nc1C(=O)Nc1ccccn1 [Compound I-117, 3-amino-N-(pyridin-2-yl)-6-(4-(thiophen-3-ylsulfonyl)piperazin-1-yl)pyrazine-2-carboxamide] | 0.1 to 1 |
| Nc1ncc(N2CCN(S(=O)(=O)C3CC3)CC2)nc1C(=O)Nc1ccccn1 [Compound I-118, 3-amino-6-(4-(cyclopropylsulfonyl)piperazin-1-yl)-N-(pyridin-2-yl)pyrazine-2-carboxamide] | 0.1 to 1 |
| Nc1ncc(N2CCN(S(=O)(=O)c3ccoc3)CC2)nc1C(=O)Nc1ccccn1 [Compound I-119, 3-amino-6-(4-(furan-3-ylsulfonyl)piperazin-1-yl)-N-(pyridin-2-yl)pyrazine-2-carboxamide] | 0.1 to 1 |
| Nc1ncc(C2=CCN(S(=O)(=O)c3ccsc3)CC2)nc1-c1nnc(-c2ccccc2)o1 [Compound I-121, 3-(5-phenyl-1,3,4-oxadiazol-2-yl)-5-(1-(thiophen-3-ylsulfonyl)-1,2,3,6-tetrahydropyridin-4-yl)pyrazin-2-amine] | < 0.1 |
| Nc1ncc(C2=CCN(S(=O)(=O)c3ccoc3)CC2)nc1-c1nnc(-c2ccccc2)o1 [Compound I-123, 5-(1-(furan-3-ylsulfonyl)-1,2,3,6-tetrahydropyridin-4-yl)-3-(5-phenyl-1,3,4-oxadiazol-2-yl)pyrazin-2-amine] | < 0.1 |

Now from value to compound:

| Ki [µM] | SMILES |
| --- | --- |
| 0.1 to 1 | Nc1ncc(N2CCN(S(=O)(=O)c3ccsc3)CC2)nc1-c1nnc(-c2ccccc2)o1 [Compound I-98, 3-(5-phenyl-1,3,4-oxadiazol-2-yl)-5-(4-(thiophen-3-ylsulfonyl)piperazin-1-yl)pyrazin-2-amine] |
| < 0.1 | Nc1ncc(C2=CCN(S(=O)(=O)c3ccccc3)CC2)nc1-c1nnc(-c2ccccc2)o1 [Compound I-102, 3-(5-phenyl-1,3,4-oxadiazol-2-yl)-5-(1-(phenylsulfonyl)-1,2,3,6-tetrahydropyridin-4-yl)pyrazin-2-amine] |
| < 0.1 | Nc1ncc(C2=CCN(S(=O)(=O)c3ccsc3)CC2)nc1-c1nc2ccccc2[nH]1 [Compound I-105, 3-(1H-benzo[d]imidazol-2-yl)-5-(1-(thiophen-3-ylsulfonyl)-1,2,3,6-tetrahydropyridin-4-yl)pyrazin-2-amine] |
| 0.1 to 1 | Nc1ncc(N2CC[C@H](NS(=O)(=O)c3ccccc3)C2)nc1-c1nc2ccccc2[nH]1 [Compound I-107, (S)-N-(1-(5-amino-6-(1H-benzo[d]imidazol-2-yl)pyrazin-2-yl)pyrrolidin-3-yl)benzenesulfonamide] |
| 1 to 10 | Nc1ncc(N2CCN(C(=O)c3ccccc3)CC2)nc1C(=O)Nc1ccccn1 [Compound I-109, 3-amino-6-(4-(phenylcarbonyl)piperazin-1-yl)-N-(pyridin-2-yl)pyrazine-2-carboxamide] |
| 0.1 to 1 | Nc1ncc(N2CCN(S(=O)(=O)c3ccccc3)CC2)nc1-c1nc2ccccc2[nH]1 [Compound I-110, 3-(1H-benzo[d]imidazol-2-yl)-5-(4-(phenylsulfonyl)piperazin-1-yl)pyrazin-2-amine] |
| 1 to 10 | Nc1ncc(N2CCN(C(=O)N3CCOCC3)CC2)nc1C(=O)Nc1ccccn1 [Compound I-114, 3-amino-6-(4-(morpholine-4-carbonyl)piperazin-1-yl)-N-(pyridin-2-yl)pyrazine-2-carboxamide] |
| < 0.1 | CC#CCOC(=O)N1CC=C(c2cnc(N)c(-c3nnc(-c4ccccc4)o3)n2)CC1 [Compound I-115, but-2-ynyl 4-(5-amino-6-(5-phenyl-1,3,4-oxadiazol-2-yl)pyrazin-2-yl)-5,6-dihydropyridine-1(2H)-carboxylate] |
| < 0.1 | Cn1cnc(S(=O)(=O)N2CC=C(c3cnc(N)c(-c4nnc(-c5ccccc5)o4)n3)CC2)c1 [Compound I-120, 5-(1-(1-methyl-1H-imidazol-4-ylsulfonyl)-1,2,3,6-tetrahydropyridin-4-yl)-3-(5-phenyl-1,3,4-oxadiazol-2-yl)pyrazin-2-amine] |
| < 0.1 | Nc1ncc(C2=CCN(S(=O)(=O)C3CC3)CC2)nc1-c1nnc(-c2ccccc2)o1 [Compound I-122, 5-(1-(cyclopropylsulfonyl)-1,2,3,6-tetrahydropyridin-4-yl)-3-(5-phenyl-1,3,4-oxadiazol-2-yl)pyrazin-2-amine] |
